# Reference: US9290517B2, “Azabenzimidazole hexahydrofuro[3,2-b]furan derivatives” (Merck Sharp & Dohme Corp., priority 2012, dated 2016)
# Legend:
# [1] = target: recombinant human AMPK complex 7 (containing α2β1γ1) (Homo sapiens (Human), UniProt P54646+Q9Y478); experiment: in vitro AMPK activation assay (AMPKSAMSF), complex 7; format: biochemical; details: for Emax: 10-point titration, expressed as % maximum AMP activation; for EC50: inflection point reflecting 50% of the maximum activation, table head names AMPK complex 7
# Sequence of recombinant human AMPK complex 7 (containing α2β1γ1) (P54646 whole entry): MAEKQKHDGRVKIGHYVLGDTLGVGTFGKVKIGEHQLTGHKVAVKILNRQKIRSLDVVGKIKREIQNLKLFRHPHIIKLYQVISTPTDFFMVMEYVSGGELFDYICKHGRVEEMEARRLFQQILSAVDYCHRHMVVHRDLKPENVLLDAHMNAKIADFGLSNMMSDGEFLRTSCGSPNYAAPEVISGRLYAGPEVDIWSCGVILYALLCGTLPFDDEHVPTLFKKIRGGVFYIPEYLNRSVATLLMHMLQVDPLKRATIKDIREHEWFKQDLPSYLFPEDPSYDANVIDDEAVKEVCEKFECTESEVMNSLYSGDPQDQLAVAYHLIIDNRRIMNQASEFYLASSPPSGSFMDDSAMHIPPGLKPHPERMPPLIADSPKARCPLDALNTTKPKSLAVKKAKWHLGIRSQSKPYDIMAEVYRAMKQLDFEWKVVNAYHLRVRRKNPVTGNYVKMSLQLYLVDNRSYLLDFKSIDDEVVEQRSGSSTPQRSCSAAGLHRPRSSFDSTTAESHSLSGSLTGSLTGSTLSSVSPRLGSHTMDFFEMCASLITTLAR
# Sequence of recombinant human AMPK complex 7 (containing α2β1γ1) (Q9Y478 whole entry): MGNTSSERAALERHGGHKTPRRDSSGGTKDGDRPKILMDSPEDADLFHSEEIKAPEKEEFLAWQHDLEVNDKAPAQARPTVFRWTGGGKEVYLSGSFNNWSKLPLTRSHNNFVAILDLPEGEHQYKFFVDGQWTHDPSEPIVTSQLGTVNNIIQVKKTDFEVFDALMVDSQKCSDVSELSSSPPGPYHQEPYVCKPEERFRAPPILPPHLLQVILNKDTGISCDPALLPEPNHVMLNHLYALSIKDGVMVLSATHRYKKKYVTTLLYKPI
# Sequence of recombinant human AMPK complex 7 (containing α2β1γ1) (P54619 whole entry partner): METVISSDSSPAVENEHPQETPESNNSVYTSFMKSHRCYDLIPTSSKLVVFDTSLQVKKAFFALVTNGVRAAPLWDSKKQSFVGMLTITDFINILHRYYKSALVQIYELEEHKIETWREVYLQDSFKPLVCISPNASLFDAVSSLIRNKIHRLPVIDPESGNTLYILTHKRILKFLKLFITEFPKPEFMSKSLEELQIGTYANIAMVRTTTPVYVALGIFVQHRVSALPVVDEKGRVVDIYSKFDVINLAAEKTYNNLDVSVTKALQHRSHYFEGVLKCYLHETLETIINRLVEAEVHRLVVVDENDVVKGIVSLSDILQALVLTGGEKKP
# Protocol: AMPKSAMSF (in vitro AMPK activation assay)
# The recombinant human AMPK complex 1 (containing α1β1γ1) or AMPK complex 7 (containing α2β1γ1) was obtained from baculovirus expression system. Recombinant viruses were generated by cotransfection of AMPK/pBacPak9 clones with Baculogold baculovirus DNA (Pharmingen) in spodoptera frugiperda 21 cells according to the manufacturer's instructions. Each round of virus amplification was performed for 5 days in Grace's medium containing 10% serum. Virus that had been subjected to three rounds of amplification was used for all protein production procedures. To express the AMPK complex, sf21 cells were adapted to serum free medium (SF900II, Invitrogen) by sequential dilution from serum containing stocks into SF900II medium and maintained in shaker flasks at 90 rpm at 27° C. The recombinant AMPK enzyme complex was produced by triple infection, one recombinant virus for each of the subunits, in sf21 cells under serum free conditions. Cells were infected in log phase, 1×10^6 cells/ml, at a multiplicity of infection of 5. Cells were harvested by centrifugation at 10,000×g for 15 minutes after 72 hours of infection with viruses. The insect cell pellet from 2 liters of culture was resuspended in 50 ml lysis buffer (20 mM Tris-HCl, 50 mM NaCl, 50 mM NaF, 30 mM Na PPi, 0.25 M sucrose, 10 mM ZnCl2, 2 mM DTT, 0.4 mg/ml digitonin) and subjected to two cycles of freeze-thaw lysis in a dry-ice ethanol bath. Insoluble material was removed by centrifugation at 10,000×g and the supernatant was fractionated with use of polyethylene glycol (PEG). The protein fraction precipitating between 2.5 and 6% PEG was used for further purification using a Blue-Sepharose step (Zhou et al, J. Clin. Invest. 108, 1167-1174, 2001).
# The in vitro AMPK activation assay is performed in a volume of 30 μl in a 384-well plate. Enzyme reactions were assembled in the microtiter plate by adding 15 μl of 2× enzyme in assay buffer (20 mM HEPES, pH 7.3, 5 mM MgCl2, 3 mM DTT, 0.01% Brij 35 and CamK Kinase, to activate AMPK) to wells which contained either DMSO or compound. The reaction was initiated with the addition of 15 μl 2× substrate mixture containing 200 μM ATP, and 3.0 μM fluorescently labeled SAMS (5-FAM-HMRSAMSGLHLVKRR-COOH) in assay buffer. After 45-minute incubation at 25° C., the reaction was stopped by the addition of 70 μl stop buffer (100 mM HEPES, pH 7.3, 40 mM EDTA, 0.015% Brij 35). Phosphorylated 5-FAM SAMS product is assessed using a Caliper EZ Reader LabChip microfluidics reader. Product conversion is determined by calculating the peak heights of the substrate and product and reporting the product/(product+substrate) peak ratio. The 10-point titration data were expressed as % maximum AMP activation. The results were plotted using 4 parameter fit and the inflection point reflecting 50% of the maximum activation was reported as the EC50.
# [2] = test system: ob/ob and db/db mice; details: following 8 weeks of administration; cited from earlier work
Emax [1] [%],EC50 [1] [nM],SMILES,blood glucose reduction [2] [%]
333,4,O=c1[nH]c(-c2ccc(-c3ccc(-c4nc5nc(O[C@@H]6CO[C@H]7[C@@H]6OC[C@H]7O)[nH]c5cc4Cl)cc3)cc2)no1 [Example 138],
286,2,O[C@@H]1CO[C@H]2[C@@H]1OC[C@H]2Oc1nc2nc(-c3ccc(-c4ccc(-n5cc(C(O)(O)C(F)(F)F)nn5)cc4)cc3)c(Cl)cc2[nH]1 [Example 128],
303,3,O[C@@H]1CO[C@H]2[C@@H]1OC[C@H]2Oc1nc2nc(-c3ccc(-c4ccc(C5Cc6nccn6C5)cc4)cc3)c(Cl)cc2[nH]1 (stereo partly drawn) [Example 126],
,,NC(=O)c1ncn([C@@H]2O[C@H](CO)[C@@H](O)[C@H]2O)c1N [AICAR],35
289,3,Cc1cc(-c2ccc(-c3ccc(-c4nc5nc(O[C@@H]6CO[C@H]7[C@@H]6OC[C@H]7O)[nH]c5cc4Cl)cc3)cc2)c(=O)[nH]n1 [Example 131],
420,10,O[C@@H]1CO[C@H]2[C@@H]1OC[C@H]2Oc1nc2nc(-c3ccc(C#CC4CCNCC4)cc3)c(Cl)cc2[nH]1 [Example 71],
337,2,CC(CO)(CO)c1ccc(-c2ccc(-c3nc4nc(O[C@@H]5CO[C@H]6[C@@H]5OC[C@H]6O)[nH]c4cc3Cl)cc2)cc1 [Example 79],
357,4,O=c1[nH]ccn1-c1ccc(-c2ccc(-c3nc4nc(O[C@@H]5CO[C@H]6[C@@H]5OC[C@H]6O)[nH]c4cc3Cl)cc2)cc1 [Example 73],
291,2,Oc1ccnc(-c2ccc(-c3ccc(-c4nc5nc(O[C@@H]6CO[C@H]7[C@@H]6OC[C@H]7O)[nH]c5cc4Cl)cc3)cc2)n1 [Example 130],
359,1,O[C@@H]1CO[C@H]2[C@@H]1OC[C@H]2Oc1nc2nc(-c3ccc(-c4ccc(C5CNCCO5)cc4)cc3)c(Cl)cc2[nH]1 (stereo partly drawn) [Example 133],
276,29,"CC(C)(O)CN1Cc2cn(-c3ccc(-c4nc5nc(O[C@@H]6CO[C@H]7[C@@H]6OC[C@H]7O)[nH]c5cc4Cl)cc3)nc2C1 [Example 14, (3R,3aR,6R,6aR)-6-[[6-chloro-5-[4-[5-(2-hydroxy-2-methyl-propyl)-5,6-dihydro-4H-pyrrolo[3,4-c]pyrazol-5-ium-2-yl]phenyl]-1H-imidazo[4,5-b]pyridin-2-yl]oxy]-2,3,3a,5,6,6a-hexahydrofuro[3,2-b]furan-3-ol; 2,2,2-trifluoroacetate]",
337,2,O[C@@H]1CO[C@H]2[C@@H]1OC[C@H]2Oc1nc2nc(-c3ccc(-c4ccc(Cn5ncnn5)cc4)cc3)c(Cl)cc2[nH]1 [Example 142],
285,3,Cc1nnc(-c2ccc(-c3ccc(-c4nc5nc(O[C@@H]6CO[C@H]7[C@@H]6OC[C@H]7O)[nH]c5cc4Cl)cc3)cc2)o1 [Example 87],
314,4,O=C(O)CCCc1ccc(-c2ccc(-c3nc4nc(O[C@@H]5CO[C@H]6[C@@H]5OC[C@H]6O)[nH]c4cc3Cl)cc2)cc1 [Example 86],
354,4,OCc1ccc(-c2ccc(-c3nc4nc(O[C@@H]5CO[C@H]6[C@@H]5OC[C@H]6O)[nH]c4cc3Cl)cc2)cc1 [Example 146],
322,1,O=c1ccn(-c2ccc(-c3ccc(-c4nc5nc(O[C@@H]6CO[C@H]7[C@@H]6OC[C@H]7O)[nH]c5cc4Cl)cc3)cc2)[nH]1 [Example 150],
350,6,O=C(O)C1CCC(c2ccc(-c3ccc(-c4nc5nc(O[C@@H]6CO[C@H]7[C@@H]6OC[C@H]7O)[nH]c5cc4Cl)cc3)cc2)=N1 (stereo partly drawn) [Example 125],
72,6,C=CCO[C@@H]1CO[C@H]2[C@@H]1OC[C@H]2Oc1nc2nc(-c3ccc(-c4ccccc4)cc3)c(Cl)cc2[nH]1 [Example 18],
348,4,O[C@@H]1CO[C@H]2[C@@H]1OC[C@H]2Oc1nc2nc(-c3ccc(-c4ccc(Cn5ccnc5)cc4)cc3)c(Cl)cc2[nH]1 [Example 147],
305,1,O=c1ncn(-c2ccc(-c3ccc(-c4nc5nc(O[C@@H]6CO[C@H]7[C@@H]6OC[C@H]7O)[nH]c5cc4Cl)cc3)cc2)[nH]1 [Example 129],
322,2,O=C1CC(c2ccc(-c3ccc(-c4nc5nc(O[C@@H]6CO[C@H]7[C@@H]6OC[C@H]7O)[nH]c5cc4Cl)cc3)cc2)CN1 (stereo partly drawn) [Example 149],
268,5,CCN(CC)c1ccc(-c2ccc(-c3nc4nc(O[C@@H]5CO[C@H]6[C@@H]5OC[C@H]6O)[nH]c4cc3Cl)cc2)cc1 [Example 105],
348,8,CC1(c2ccc(-c3ccc(-c4nc5nc(O[C@@H]6CO[C@H]7[C@@H]6OC[C@H]7O)[nH]c5cc4Cl)cc3)cc2)COC1 [Example 145],
281,4,Cn1c(-c2ccc(-c3ccc(-c4nc5nc(O[C@@H]6CO[C@H]7[C@@H]6OC[C@H]7O)[nH]c5cc4Cl)cc3)cc2)cnc1N [Example 127],
304,5,N#Cc1ccc(-c2ccc(-c3nc4nc(O[C@@H]5CO[C@H]6[C@@H]5OC[C@H]6O)[nH]c4cc3Cl)cc2)c(F)c1 [Example 102],
323,2,CN(C)CCOc1ccc(-c2ccc(-c3nc4nc(O[C@@H]5CO[C@H]6[C@@H]5OC[C@H]6O)[nH]c4cc3Cl)cc2)cc1 [Example 151],
